# pIC50: −log10 of the molar value.
# Columns and labels:
# [1] = tested on: SARS-CoV-2; assay: Inhibition of SARS-CoV-2-induced CPE in Vero cells (neutral red assay); format: cell-based; settings: for Maximal inhibition of CPE (%): MOI 0.1, 48 h, maximal observed within tested dose range (5-10 µM; pyridoxine 10-20 µM); for pIC50: Severe acute respiratory syndrome coronavirus 2, three-parameter model, responses constrained to 0-100%; for Dose at maximal observed inhibition of CPE: within tested dose range
# [2] = molecular target: SARS-CoV-2 papain-like protease (Severe acute respiratory syndrome coronavirus 2, UniProt P0DTD1); assay: SensoLyte 520 SARS-CoV-2 papain-like protease activity assay; format: biochemical; settings: for Maximal inhibition of PP (%): maximal observed within tested dose range (2.5-10 µM; pyridoxine 5-20 µM); for Dose at maximal observed inhibition of PP: within tested dose range
# [3] = molecular target: SARS-CoV-2 main protease (MPRO or 3CL) (Severe acute respiratory syndrome coronavirus 2, UniProt P0DTD1); assay: SensoLyte 520 SARS-CoV-2 MPRO activity assay; format: biochemical; settings: for Maximal inhibition of MPRO (%): maximal observed within tested dose range (2.5-10 µM; pyridoxine 5-20 µM); for Dose at maximal observed inhibition of MPRO: within tested dose range
# [4] = tested on: Vero cells; assay: Toxicity of the drugs alone to Vero cells (cell toxicity study); settings: all tested doses
# [5] = tested on: SARS-CoV-2; design: method as in Caly et al., 2020; settings: inhibition of viral replication; ref Caly et al., 2020; cited from earlier work
Compound,Maximal inhibition of CPE (%) [1],pIC50 [1],Dose at maximal observed inhibition of CPE [1],Maximal inhibition of PP (%) [2],Dose at maximal observed inhibition of PP [2],Maximal inhibition of MPRO (%) [3],Dose at maximal observed inhibition of MPRO [3],Toxicity to Vero cells [4],Reduction in viral load [5]
C=C[C@]1(C)C[C@@H](OC(=O)CS[C@@H]2C[C@H]3CC[C@@H](C2)N3C)[C@]2(C)[C@H](C)CC[C@]3(CCC(=O)[C@H]32)[C@@H](C)[C@@H]1O [Retapamulin],75%,5.37,7.5 µM,20.60%,5 µM,33.37%,2.5 µM,–,–
Cc1ncc(CO)c(CO)c1O [Pyridoxine],63%,5.03,20 µM,17.46%,20.0 µM,45.17%,20.0 µM,–,–
CC[C@H]1OC(=O)[C@H](C)[C@@H](O[C@H]2C[C@@](C)(OC)[C@@H](O)[C@H](C)O2)[C@H](C)[C@@H](O[C@@H]2O[C@H](C)C[C@H](N(C)C)[C@H]2O)[C@](C)(O)C[C@@H](C)C(=O)[C@H](C)[C@@H](O)[C@]1(C)O [Erythromycin],76%,5.49,10 µM,29.46%,10.0 µM,30.51%,2.5 µM,–,–
Nc1nc2ncc(CNc3ccc(C(=O)N[C@@H](CCC(=O)O)C(=O)O)cc3)nc2c(=O)[nH]1 [Folic Acid],42%,–,5 µM,31.99%,5 µM,26.8%,2.5 µM,not found to be toxic,–
Ivermectin,10%,–,–,34.34%,10 µM,38.07%,5.0 µM,–,"up to 5,000 fold"
